# Laboratory results reported in PubChem BioAssay (NCI).
#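 All cell lines were grown in 96-well plates and treated with compound for 48 hours. GI50 marks 50% less growth. TGI: total growth inhibition.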
# Assays:
# Test in all cases: growth of human tumour cells (NCI), 48 h
# [1] = system: T-47D breast
# [2] = system: A498 renal
# [3] = system: UO-31 renal
# [4] = system: HL-60(TB) leukemia
# [5] = system: OVCAR-3 ovarian
# [6] = system: M14 melanoma
# [7] = system: TK-10 renal
# [8] = system: MALME-3M melanoma
# [9] = system: K-562 leukemia
# [10] = system: CCRF-CEM leukemia
# [11] = system: SW-620 colon
# [12] = system: SF-268 CNS
# [13] = system: NCI-H23 lung
# [14] = system: MOLT-4 leukemia
# [15] = system: MCF7 breast
# [16] = system: HCC-2998 colon
# [17] = system: HS 578T breast
# [18] = system: NCI-H226 lung
# [19] = system: CAKI-1 renal
# [20] = system: DU-145 prostate
# [21] = system: RXF 393 renal
# [22] = system: A549 NSCLC
# [23] = system: SN12C renal
# [24] = system: NCI/ADR-RES ovarian
# [25] = system: NCI-H460 lung
# [26] = system: HOP-62 NSCLC
# [27] = system: HCT-116 colon
# [28] = system: UACC-62 melanoma
# [29] = system: SK-MEL-5 melanoma
# [30] = system: HCT-15 colon
# [31] = system: KM12 colon
# [32] = system: COLO 205 colon
# [33] = system: 786-0 renal
# [34] = system: RPMI-8226 leukemia
# [35] = system: OVCAR-8 ovarian
# [36] = system: HT29 colon
# [37] = system: SNB-75 CNS
# [38] = system: MDA-MB-231 breast
# [39] = system: SF-539 CNS
# [40] = system: MDA-MB-435
# [41] = system: SNB-19 CNS
# [42] = system: OVCAR-5 ovarian
# [43] = system: ACHN renal
# [44] = system: IGROV1 ovarian
# [45] = system: UACC-257 melanoma
# [46] = system: NCI-H522 lung
# [47] = system: SR leukemia
# [48] = system: SK-OV-3 ovarian
# [49] = system: OVCAR-4 ovarian
# [50] = system: BT-549 breast
# [51] = system: SK-MEL-28 melanoma
# [52] = system: PC-3 prostate
# [53] = system: SF-295 CNS
# [54] = system: SK-MEL-2 melanoma
# [55] = system: LOX IMVI melanoma
# [56] = system: U251 CNS
# [57] = system: HOP-92 NSCLC
structure (smiles),measurement,setting,value
Cc1ccc(NC2=C3CCCCC3OC2=O)cc1 (stereo unspecified),GI50,[1],29.3 µM
same,TGI,[1],> 100 µM
same,GI50,[2],65.9 µM
same,TGI,[2],> 100 µM
same,GI50,[3],27.6 µM
same,TGI,[3],> 100 µM
same,GI50,[4],55.6 µM
same,TGI,[4],> 100 µM
same,GI50,[5],68.7 µM
same,TGI,[5],> 100 µM
same,GI50,[6],> 100 µM
same,TGI,[6],> 100 µM
same,GI50,[7],> 100 µM
same,TGI,[7],> 100 µM
same,GI50,[8],39.2 µM
same,TGI,[8],> 100 µM
same,GI50,[9],45.1 µM
same,TGI,[9],> 100 µM
same,GI50,[10],21.6 µM
same,TGI,[10],84.2 µM
same,GI50,[11],> 100 µM
same,TGI,[11],> 100 µM
same,GI50,[12],> 100 µM
same,TGI,[12],> 100 µM
same,GI50,[13],60.5 µM
same,TGI,[13],> 100 µM
same,GI50,[14],19.1 µM
same,TGI,[14],86 µM
same,GI50,[15],20.5 µM
same,TGI,[15],> 100 µM
same,GI50,[16],> 100 µM
same,TGI,[16],> 100 µM
same,GI50,[17],> 100 µM
same,TGI,[17],> 100 µM
same,GI50,[18],87.1 µM
same,TGI,[18],> 100 µM
same,GI50,[19],49.5 µM
same,TGI,[19],> 100 µM
same,GI50,[20],88.8 µM
same,TGI,[20],> 100 µM
same,GI50,[21],> 100 µM
same,TGI,[21],> 100 µM
same,GI50,[22],> 100 µM
same,TGI,[22],> 100 µM
same,GI50,[23],93 µM
same,TGI,[23],> 100 µM
same,GI50,[24],> 100 µM
same,TGI,[24],> 100 µM
same,GI50,[25],> 100 µM
same,TGI,[25],> 100 µM
same,GI50,[26],> 100 µM
same,TGI,[26],> 100 µM
same,GI50,[27],66.1 µM
same,TGI,[27],> 100 µM
same,GI50,[28],47 µM
same,TGI,[28],> 100 µM
same,GI50,[29],34.9 µM
same,TGI,[29],> 100 µM
same,GI50,[30],> 100 µM
same,TGI,[30],> 100 µM
same,GI50,[31],> 100 µM
same,TGI,[31],> 100 µM
same,GI50,[32],78.1 µM
same,TGI,[32],> 100 µM
same,GI50,[33],> 100 µM
same,TGI,[33],> 100 µM
same,GI50,[34],34.5 µM
same,TGI,[34],> 100 µM
same,GI50,[35],78.4 µM
same,TGI,[35],> 100 µM
same,GI50,[36],79.8 µM
same,TGI,[36],> 100 µM
same,GI50,[37],71.9 µM
same,TGI,[37],> 100 µM
same,GI50,[38],35.2 µM
same,TGI,[38],> 100 µM
same,GI50,[39],> 100 µM
same,TGI,[39],> 100 µM
same,GI50,[40],55.2 µM
same,TGI,[40],> 100 µM
same,GI50,[41],63.8 µM
same,TGI,[41],> 100 µM
same,GI50,[42],> 100 µM
same,TGI,[42],> 100 µM
same,GI50,[43],> 100 µM
same,TGI,[43],> 100 µM
same,GI50,[44],54.3 µM
same,TGI,[44],> 100 µM
same,GI50,[45],63.1 µM
same,TGI,[45],> 100 µM
same,GI50,[46],29 µM
same,TGI,[46],> 100 µM
same,GI50,[47],39.5 µM
same,TGI,[47],> 100 µM
same,GI50,[48],> 100 µM
same,TGI,[48],> 100 µM
same,GI50,[49],43.2 µM
same,TGI,[49],> 100 µM
same,GI50,[50],> 100 µM
same,TGI,[50],> 100 µM
same,GI50,[51],> 100 µM
same,TGI,[51],> 100 µM
same,GI50,[52],49.7 µM
same,TGI,[52],> 100 µM
same,GI50,[53],75 µM
same,TGI,[53],> 100 µM
CC(C)(C)[Si](C)(C)OC1[C@@H](O[Si](C)(C)C(C)(C)C)[C@@H](CNC(=O)NC(=O)C(F)(F)F)O[C@H]1n1cnc2c(NC(=O)Nc3ccccc3)ncnc21 (stereo partly specified),GI50,[1],5.64 µM
same,TGI,[1],11.8 µM
same,GI50,[2],6.34 µM
same,TGI,[2],13 µM
same,GI50,[3],7.68 µM
same,TGI,[3],15.6 µM
same,GI50,[4],9.3 µM
same,TGI,[4],26.4 µM
same,GI50,[5],7.63 µM
same,TGI,[5],14.5 µM
same,GI50,[6],5.72 µM
same,TGI,[6],13.2 µM
same,GI50,[7],9.77 µM
same,TGI,[7],17.2 µM
same,GI50,[8],10.4 µM
same,TGI,[8],19.5 µM
same,GI50,[9],8.16 µM
same,TGI,[9],24.7 µM
same,GI50,[10],7.31 µM
same,TGI,[10],41.6 µM
same,GI50,[11],7.53 µM
same,TGI,[11],15.7 µM
same,GI50,[12],6.22 µM
same,TGI,[12],13.4 µM
same,GI50,[13],8.77 µM
same,TGI,[13],16.6 µM
same,GI50,[14],1.67 µM
same,TGI,[14],7.03 µM
same,GI50,[15],2.05 µM
same,TGI,[15],8.07 µM
same,GI50,[16],4.28 µM
same,TGI,[16],10.6 µM
same,GI50,[17],4.5 µM
same,TGI,[17],17.2 µM
same,GI50,[18],4.61 µM
same,TGI,[18],11.8 µM
same,GI50,[19],8.24 µM
same,TGI,[19],17 µM
same,GI50,[20],6.52 µM
same,TGI,[20],13.2 µM
same,GI50,[54],9.37 µM
same,TGI,[54],17.3 µM
same,GI50,[21],1.3 µM
same,TGI,[21],4.25 µM
same,GI50,[22],4.5 µM
same,TGI,[22],12.4 µM
same,GI50,[23],1.96 µM
same,TGI,[23],8.22 µM
same,GI50,[24],7.56 µM
same,TGI,[24],14.7 µM
same,GI50,[25],6.39 µM
same,TGI,[25],15.7 µM
same,GI50,[26],7.41 µM
same,TGI,[26],14.1 µM
same,GI50,[27],2.46 µM
same,TGI,[27],8.47 µM
same,GI50,[28],7.45 µM
same,TGI,[28],15.9 µM
same,GI50,[29],2.72 µM
same,TGI,[29],9.18 µM
same,GI50,[30],2.94 µM
same,TGI,[30],9.12 µM
same,GI50,[31],4.02 µM
same,TGI,[31],11.4 µM
same,GI50,[32],6.03 µM
same,TGI,[32],12.8 µM
same,GI50,[33],6.58 µM
same,TGI,[33],13.4 µM
same,GI50,[34],7.11 µM
same,TGI,[34],28.6 µM
same,GI50,[35],7.76 µM
same,TGI,[35],16.7 µM
same,GI50,[36],4.33 µM
same,TGI,[36],11.1 µM
same,GI50,[37],5.68 µM
same,TGI,[37],12.7 µM
same,GI50,[38],6.16 µM
same,TGI,[38],14.2 µM
same,GI50,[39],6.74 µM
same,TGI,[39],13.2 µM
same,GI50,[40],5.52 µM
same,TGI,[40],16.4 µM
same,GI50,[42],7.89 µM
same,TGI,[42],14.6 µM
same,GI50,[43],5.54 µM
same,TGI,[43],11.5 µM
same,GI50,[55],6.12 µM
same,TGI,[55],12.3 µM
same,GI50,[44],8.32 µM
same,TGI,[44],17.4 µM
same,GI50,[45],7.19 µM
same,TGI,[45],15 µM
same,GI50,[46],9.14 µM
same,TGI,[46],16.6 µM
same,GI50,[47],1.52 µM
same,TGI,[47],5.25 µM
same,GI50,[56],7.4 µM
same,TGI,[56],14.5 µM
same,GI50,[48],8.74 µM
same,TGI,[48],15.7 µM
same,GI50,[49],3.98 µM
same,TGI,[49],10.9 µM
same,GI50,[50],6.81 µM
same,TGI,[50],13.4 µM
same,GI50,[51],8.04 µM
same,TGI,[51],15.2 µM
same,GI50,[52],1.82 µM
same,TGI,[52],7.91 µM
same,GI50,[57],5.2 µM
same,TGI,[57],11.8 µM
